Assay results: patent EP4592286A1, “MACROCYCLIC NITROGEN-CONTAINING CROWN ETHER COMPOUND AND USE THEREOF AS PROTEIN KINASE INHIBITOR” (Artivila Biopharma, priority 2022, dated 2024)

Legend:
[1] = target: T1, JAK1 (Homo sapiens, UniProt P23458); assay: experiment of inhibiting kinase activity (Caliper mobility shift assay), JAK1; assay type: biochemical; conditions: for inhibition at 0.01 µM: at 10 nM; for inhibition at 0.01 µM / inhibition at 0.1 µM: read-out: inhibition rate JAK1; for inhibition at 0.1 µM: at 100 nM; for IC50: kinase activity assay, Table 3
Method in brief: (§1)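 IC50 values come from variable-slope fits of % conversion inhibition versus log compound concentration. Kinase and inhibitor were preincubated for 10 min at room temperature, and the reaction was then initiated with ATP and substrate and read by mobility shift.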

[2] = target: JAK2 (Homo sapiens, UniProt O60674); assay: experiment of inhibiting kinase activity (Caliper mobility shift assay), JAK2; assay type: biochemical; conditions: for inhibition at 0.01 µM: at 10 nM; for inhibition at 0.01 µM / inhibition at 0.1 µM: read-out: inhibition rate JAK2; for inhibition at 0.1 µM: at 100 nM; for IC50: kinase activity assay, Table 3
Method in brief: as §1

[3] = target: LRRK2 (Homo sapiens, UniProt Q5S007); assay: experiment of inhibiting kinase activity, LRRK2; assay type: biochemical; conditions: for inhibition at 0.01 µM: at 10 nM; for inhibition at 0.01 µM / inhibition at 0.1 µM: read-out: inhibition rate LRRK2; for inhibition at 0.1 µM: at 100 nM; for IC50: kinase activity assay, Table 3
Experimental: The inhibition rates of tested compounds on JAK1, JAK2, JAK3, TYK2, CDK7, CDK9, EGFR (T790M) and LRRK2 kinases were measured. The test concentrations of the compounds were 10 nM and 100 nM, and the detection was performed by replicate wells. Alternatively, compounds were 3-fold serial diluted from 10 µM for 10 concentrations in replicate wells.

[4] = target: T1, JAK1; assay: JAKs cell activity test: detection of pSTAT6 in THP1 cells induced by JAK1_IL-4; assay type: cell-based; conditions: pSTAT6, IL-4-induced THP1 cells
Experimental: Detection of pSTAT6 in THP1 cells induced by JAK1_IL-4
(§2) THP1 cells were collected by centrifugation, resuspended with 1×HBSS, counted and diluted to a certain cell density. They were inoculated in a 384-well plate and cultured in a saturated humidity incubator with 37 °C and 5% CO2. The compound (DMSO final volume of 0.3%) was added to THP1 cells (10 doses in duplicates) and cultured in a saturated humidity incubator with 37 °C and 5% CO2. hIL-4 was added to stimulate cells and cultured in a saturated humidity incubator with 37 °C and 5% CO2. The lysis solution was added and incubated at room temperature. According to the instructions of AlphaLISA SureFire Ultra p-STAT6 detection kit, the lysis solution was transferred to pSTAT6 detection system, and the ALPHA signal was read by PE Envision microplate reader. The inhibition rate Inh%=((DMSO-sample)/(DMSO-background))×100 was calculated. IC50 was obtained by fitting with GraphPad Prism non-linear regression equation, and y=Bottom+(Top-Bottom)/(1+10^((LogIC50-x)×hillslope)), where x was the concentration of the compound and y was the inhibition rate.

[5] = target: T2, JAK3 (Mus musculus, UniProt Q62137); assay: JAKs cell activity test: JAK3_pSTAT5 in IL-2-induced CTLL-2 cells; assay type: cell-based; conditions: pSTAT5, IL-2-induced CTLL-2 cells
T2 construct: endogenous in cells; host or cells: CTLL-2
T2 sequence (Q62137 1-1100): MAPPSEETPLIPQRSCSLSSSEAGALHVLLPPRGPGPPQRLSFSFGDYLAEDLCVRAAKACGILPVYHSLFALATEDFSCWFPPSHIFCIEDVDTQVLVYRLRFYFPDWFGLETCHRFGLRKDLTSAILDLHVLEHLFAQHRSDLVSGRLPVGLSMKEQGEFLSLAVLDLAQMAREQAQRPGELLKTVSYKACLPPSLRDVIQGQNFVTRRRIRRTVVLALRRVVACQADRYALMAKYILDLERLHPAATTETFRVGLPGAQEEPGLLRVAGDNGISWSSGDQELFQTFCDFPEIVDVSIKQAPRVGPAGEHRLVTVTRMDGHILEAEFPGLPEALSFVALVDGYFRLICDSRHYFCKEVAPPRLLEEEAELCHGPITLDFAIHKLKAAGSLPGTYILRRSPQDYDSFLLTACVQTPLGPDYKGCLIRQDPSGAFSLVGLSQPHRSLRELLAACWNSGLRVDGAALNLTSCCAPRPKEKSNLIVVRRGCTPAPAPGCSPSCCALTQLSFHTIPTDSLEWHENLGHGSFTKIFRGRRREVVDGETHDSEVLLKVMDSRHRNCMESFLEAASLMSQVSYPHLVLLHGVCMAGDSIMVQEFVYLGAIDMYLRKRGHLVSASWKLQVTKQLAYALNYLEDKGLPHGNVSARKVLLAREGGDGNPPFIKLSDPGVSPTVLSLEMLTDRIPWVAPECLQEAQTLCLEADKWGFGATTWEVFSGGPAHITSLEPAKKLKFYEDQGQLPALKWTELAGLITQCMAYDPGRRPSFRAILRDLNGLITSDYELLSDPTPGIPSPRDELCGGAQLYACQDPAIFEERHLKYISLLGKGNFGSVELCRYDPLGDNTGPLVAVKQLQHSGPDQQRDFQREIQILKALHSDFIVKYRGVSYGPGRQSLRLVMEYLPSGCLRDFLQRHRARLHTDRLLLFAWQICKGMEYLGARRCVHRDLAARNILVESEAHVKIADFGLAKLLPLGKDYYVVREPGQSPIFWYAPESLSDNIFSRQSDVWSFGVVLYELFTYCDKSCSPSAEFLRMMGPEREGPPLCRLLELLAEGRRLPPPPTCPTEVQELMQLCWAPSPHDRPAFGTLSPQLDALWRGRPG
Experimental: as §2
JAK2_pSTAT5 was tesed in IL-3-induced BAF3 cells according to the above steps, and JAK3_pSTAT5 was tested in IL-2-induced CTLL-2 cells (without serum stimulation) according to the above steps.

LRRK2, sequence (Q5S007 whole entry): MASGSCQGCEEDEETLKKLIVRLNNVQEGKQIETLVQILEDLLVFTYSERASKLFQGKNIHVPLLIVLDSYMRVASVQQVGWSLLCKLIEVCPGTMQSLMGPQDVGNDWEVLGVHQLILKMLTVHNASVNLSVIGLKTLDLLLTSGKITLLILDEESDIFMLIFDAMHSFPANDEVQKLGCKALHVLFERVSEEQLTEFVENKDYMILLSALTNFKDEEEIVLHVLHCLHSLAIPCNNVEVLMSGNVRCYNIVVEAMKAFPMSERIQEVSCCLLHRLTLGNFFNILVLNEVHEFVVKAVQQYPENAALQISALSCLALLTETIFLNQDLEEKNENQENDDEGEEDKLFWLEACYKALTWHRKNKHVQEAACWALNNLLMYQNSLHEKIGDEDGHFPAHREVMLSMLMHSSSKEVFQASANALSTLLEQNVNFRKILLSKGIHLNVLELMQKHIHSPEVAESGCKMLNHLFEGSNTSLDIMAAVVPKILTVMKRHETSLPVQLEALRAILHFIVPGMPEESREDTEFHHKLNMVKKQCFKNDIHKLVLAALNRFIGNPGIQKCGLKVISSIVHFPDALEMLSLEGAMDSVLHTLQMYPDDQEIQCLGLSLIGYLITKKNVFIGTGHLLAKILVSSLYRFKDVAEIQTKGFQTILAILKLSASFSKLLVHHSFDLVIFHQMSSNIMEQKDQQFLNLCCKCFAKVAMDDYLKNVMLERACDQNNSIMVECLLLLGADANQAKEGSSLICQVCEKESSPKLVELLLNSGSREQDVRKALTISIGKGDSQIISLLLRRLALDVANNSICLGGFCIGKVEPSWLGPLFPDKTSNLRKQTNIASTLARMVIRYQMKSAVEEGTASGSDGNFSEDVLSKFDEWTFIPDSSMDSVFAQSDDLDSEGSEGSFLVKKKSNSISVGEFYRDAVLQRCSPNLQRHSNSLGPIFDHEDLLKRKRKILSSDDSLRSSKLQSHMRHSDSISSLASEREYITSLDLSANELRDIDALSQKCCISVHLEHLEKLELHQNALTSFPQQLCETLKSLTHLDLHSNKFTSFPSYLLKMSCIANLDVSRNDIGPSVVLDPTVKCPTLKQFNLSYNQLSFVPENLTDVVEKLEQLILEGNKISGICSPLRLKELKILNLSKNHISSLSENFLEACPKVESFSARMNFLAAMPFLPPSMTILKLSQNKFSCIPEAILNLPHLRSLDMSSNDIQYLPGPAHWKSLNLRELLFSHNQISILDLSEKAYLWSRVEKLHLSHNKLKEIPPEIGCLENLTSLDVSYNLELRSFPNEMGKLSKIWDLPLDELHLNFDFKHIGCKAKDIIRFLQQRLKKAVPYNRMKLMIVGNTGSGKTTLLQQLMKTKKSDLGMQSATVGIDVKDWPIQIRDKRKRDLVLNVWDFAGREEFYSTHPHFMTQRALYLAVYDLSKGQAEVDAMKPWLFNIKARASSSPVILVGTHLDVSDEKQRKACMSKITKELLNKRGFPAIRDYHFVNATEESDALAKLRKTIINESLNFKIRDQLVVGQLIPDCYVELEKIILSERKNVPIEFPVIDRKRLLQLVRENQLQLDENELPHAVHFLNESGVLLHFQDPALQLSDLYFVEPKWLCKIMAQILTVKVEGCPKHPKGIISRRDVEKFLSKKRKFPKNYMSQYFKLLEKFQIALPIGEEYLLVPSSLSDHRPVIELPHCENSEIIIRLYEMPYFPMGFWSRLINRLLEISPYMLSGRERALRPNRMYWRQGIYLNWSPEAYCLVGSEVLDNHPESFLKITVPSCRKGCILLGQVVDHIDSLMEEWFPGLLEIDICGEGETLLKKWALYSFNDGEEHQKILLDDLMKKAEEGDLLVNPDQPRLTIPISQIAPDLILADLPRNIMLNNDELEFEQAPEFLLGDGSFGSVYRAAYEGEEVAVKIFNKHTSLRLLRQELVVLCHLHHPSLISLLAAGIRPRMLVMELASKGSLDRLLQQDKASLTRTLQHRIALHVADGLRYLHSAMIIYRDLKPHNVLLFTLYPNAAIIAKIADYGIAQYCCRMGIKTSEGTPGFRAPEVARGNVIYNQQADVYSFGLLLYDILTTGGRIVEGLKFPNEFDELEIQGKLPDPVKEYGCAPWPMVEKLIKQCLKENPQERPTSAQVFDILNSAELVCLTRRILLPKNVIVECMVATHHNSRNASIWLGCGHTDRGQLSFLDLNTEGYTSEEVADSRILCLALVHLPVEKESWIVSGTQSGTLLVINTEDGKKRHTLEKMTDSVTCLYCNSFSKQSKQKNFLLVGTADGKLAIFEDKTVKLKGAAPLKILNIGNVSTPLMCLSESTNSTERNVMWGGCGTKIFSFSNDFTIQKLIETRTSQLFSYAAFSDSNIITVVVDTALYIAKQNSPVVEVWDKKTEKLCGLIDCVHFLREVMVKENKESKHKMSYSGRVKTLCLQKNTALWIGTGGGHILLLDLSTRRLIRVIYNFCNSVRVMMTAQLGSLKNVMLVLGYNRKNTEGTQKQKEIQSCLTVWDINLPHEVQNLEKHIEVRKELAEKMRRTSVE
JAK2, sequence (O60674 whole entry): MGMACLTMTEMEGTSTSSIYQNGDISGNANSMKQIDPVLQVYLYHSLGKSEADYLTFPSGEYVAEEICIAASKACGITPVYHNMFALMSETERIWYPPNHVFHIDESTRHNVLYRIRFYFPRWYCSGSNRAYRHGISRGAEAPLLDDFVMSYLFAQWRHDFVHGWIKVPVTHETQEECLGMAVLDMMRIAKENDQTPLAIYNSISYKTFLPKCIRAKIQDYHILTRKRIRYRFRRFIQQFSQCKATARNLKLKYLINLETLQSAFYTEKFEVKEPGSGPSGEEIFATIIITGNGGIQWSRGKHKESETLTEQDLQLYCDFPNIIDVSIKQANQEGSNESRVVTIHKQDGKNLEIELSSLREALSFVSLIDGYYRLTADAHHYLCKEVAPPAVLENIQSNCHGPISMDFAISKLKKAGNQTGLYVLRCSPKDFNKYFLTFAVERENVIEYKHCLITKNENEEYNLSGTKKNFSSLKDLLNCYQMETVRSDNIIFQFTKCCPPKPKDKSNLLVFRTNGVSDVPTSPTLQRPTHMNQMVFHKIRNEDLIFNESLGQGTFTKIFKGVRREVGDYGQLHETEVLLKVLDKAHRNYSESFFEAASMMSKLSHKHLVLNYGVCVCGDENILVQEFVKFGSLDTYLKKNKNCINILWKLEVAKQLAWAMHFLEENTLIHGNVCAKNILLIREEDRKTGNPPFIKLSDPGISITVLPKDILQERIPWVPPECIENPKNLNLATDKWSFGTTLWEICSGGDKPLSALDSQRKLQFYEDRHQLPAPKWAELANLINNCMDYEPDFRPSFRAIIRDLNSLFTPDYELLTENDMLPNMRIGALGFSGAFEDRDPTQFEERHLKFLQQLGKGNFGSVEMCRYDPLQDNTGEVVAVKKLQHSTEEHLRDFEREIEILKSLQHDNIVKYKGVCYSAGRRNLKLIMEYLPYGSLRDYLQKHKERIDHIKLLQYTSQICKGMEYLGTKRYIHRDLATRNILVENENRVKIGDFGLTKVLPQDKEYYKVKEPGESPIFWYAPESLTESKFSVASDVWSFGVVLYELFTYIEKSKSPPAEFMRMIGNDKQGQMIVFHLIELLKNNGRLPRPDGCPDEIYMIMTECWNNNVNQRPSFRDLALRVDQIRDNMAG
T1 sequence (P23458 whole entry): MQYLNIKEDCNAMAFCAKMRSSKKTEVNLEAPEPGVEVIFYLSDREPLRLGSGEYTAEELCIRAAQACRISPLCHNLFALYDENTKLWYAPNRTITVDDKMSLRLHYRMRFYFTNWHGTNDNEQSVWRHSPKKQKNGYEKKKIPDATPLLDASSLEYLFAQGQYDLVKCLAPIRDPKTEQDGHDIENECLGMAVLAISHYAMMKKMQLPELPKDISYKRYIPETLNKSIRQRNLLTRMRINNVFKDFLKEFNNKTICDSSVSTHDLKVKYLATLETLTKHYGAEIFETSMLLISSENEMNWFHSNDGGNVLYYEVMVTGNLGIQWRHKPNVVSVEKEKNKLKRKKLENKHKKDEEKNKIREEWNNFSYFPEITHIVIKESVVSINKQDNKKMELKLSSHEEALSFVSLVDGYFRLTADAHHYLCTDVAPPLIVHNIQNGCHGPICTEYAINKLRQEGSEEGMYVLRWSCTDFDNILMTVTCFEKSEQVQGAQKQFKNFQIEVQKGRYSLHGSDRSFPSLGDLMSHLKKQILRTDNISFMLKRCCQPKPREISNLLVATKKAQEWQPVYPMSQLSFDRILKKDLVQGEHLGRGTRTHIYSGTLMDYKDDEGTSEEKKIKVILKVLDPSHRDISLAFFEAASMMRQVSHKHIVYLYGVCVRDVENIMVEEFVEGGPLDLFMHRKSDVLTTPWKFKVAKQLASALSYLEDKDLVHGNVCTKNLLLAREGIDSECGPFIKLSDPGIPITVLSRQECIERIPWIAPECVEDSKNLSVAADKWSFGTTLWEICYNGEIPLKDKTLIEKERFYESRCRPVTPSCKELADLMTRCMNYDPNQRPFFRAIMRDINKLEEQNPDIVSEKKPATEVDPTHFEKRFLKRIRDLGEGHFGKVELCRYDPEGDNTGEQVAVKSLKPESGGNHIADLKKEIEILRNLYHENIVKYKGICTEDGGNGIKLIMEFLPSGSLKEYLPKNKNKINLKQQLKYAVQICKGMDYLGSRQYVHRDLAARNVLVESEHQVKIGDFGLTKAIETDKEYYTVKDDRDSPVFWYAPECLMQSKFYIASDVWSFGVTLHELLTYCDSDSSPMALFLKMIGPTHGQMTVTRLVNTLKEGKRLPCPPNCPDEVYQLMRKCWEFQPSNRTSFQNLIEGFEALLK

SMILES	inhibition at 0.01 µM [1]	inhibition at 0.1 µM [1]	inhibition at 0.01 µM [2]	inhibition at 0.1 µM [2]	inhibition at 0.01 µM [3]	inhibition at 0.1 µM [3]	EC50 [4]	EC50 [5]	IC50 [1]	IC50 [2]	IC50 [3]
CN1CCOCCOc2cc(Nc3nc(-c4cnn(C(CC#N)C5CCCC5)c4)c4cc[nH]c4n3)ccc2OCC1 (stereo not drawn) [Example 26, 3-cyclopentyl-3-(4-(2-((7-methyl-2,3,6,7,8,9-hexahydro-5H-benzo[b][1,4,7]trioxa[10]azacyclododecan-13-yl)amino)-7H-pyrrolo[2,3-d]pytimidin-4-yl)-1H-pyrazol-1-yl)propionitrile]	> 80%	> 80%	> 80%	> 80%	> 80%	> 80%	< 50 nM	500 to 5000 nM			
CCS(=O)(=O)N1CC(CC#N)(n2cc(-c3nc(Nc4ccc5c(c4)OCCN(C)CCO5)nc4[nH]ccc34)cn2)C1 [Example 28, 2-(1-(ethylsulfonyl)-3-(4-(2-((4-methyl-3,4,5,6-tetrahydro-2H-benzo[b][1,4,7]dioxazolin-9-yl)amino)-7H-pyrrolo[2,3-d]pytimidin-4-yl)-1H-pyrazol-1-yl)azetidin-3-yl) acetonitrile]	> 80%	> 80%	> 80%	> 80%	40 to 79%	> 80%	< 50 nM	< 50 nM	< 50 nM	< 50 nM	< 50 nM
CN1CCOCCOc2cc(Nc3ncc(F)c(-c4ccc(C(=O)NCC#N)cc4)n3)ccc2OCC1 [Example 16, N-(cyanomethyl)-4-(5-fluoro-2-((7-methyl-2,3,6,7,8,9-hexahydro-5H-benzo[b][1,4,7]trioxa[10]azacyclododecan-13-yl)amino)pyrimidin-4-yl)benzamide]		40 to 79%	40 to 79%	> 80%		40 to 79%	50 to 500 nM		50 to 200 nM	< 50 nM	50 to 200 nM
